The nature of assay [1]: Inhibition of nitric oxide production by Griess assay. In kind it is functional. Set-up: concentration or dose not given beside the values. Particulars: dose or concentration not given here. For orientation: The Griess reaction detects nitrite, a stable product of nitric oxide.
For assay [2], the system named is Trypanosoma cruzi. Briefly: Antitrypanosomal activity against Trypanosoma cruzi Tulahuen 2 assessed as inhibition of epimastigotes growth after 5 days by MTT assay relative to control. In kind it is functional. The note with it: Tulahuen 2, 120 h, read-out: ID50 (the source's name). For orientation: Tetrazolium dyes change colour on reduction, which living cells bring about.

The test system of assay [3] is Trypanosoma cruzi. Briefly: Antitrypanosomal activity against Trypanosoma cruzi CL Brener assessed as parasite viability after 5 days by MTT assay. The assay is classed as functional. Particulars: 120 h, read-out: ID50 (the source's name).
Assay [4] has as its system Trypanosoma cruzi. The assay is described as follows: Antitrypanosomal activity against Trypanosoma cruzi Y assessed as parasite viability after 5 days by MTT assay. The note with it: 120 h, read-out: ID50 (the source's name). In kind it is functional.
The next assay deals with Leishmania braziliensis. The assay is described as follows: Antileishmanial activity against Leishmania braziliensis MHOM/BR/00/LTB300 assessed as parasite viability after 5 days by MTT assay. The assay is classed as functional. Particulars: 120 h, read-out: ID50 (the source's name).
The subject of assay [5] is Leishmania pifanoi. Briefly: Antileishmanial activity against Leishmania pifanoi MHOM/VE/57/LV135 assessed as parasite viability after 5 days by MTT assay. In kind it is functional. The note with it: 120 h, read-out: ID50 (the source's name).
For assay [6], the system named is Trypanosoma cruzi. Briefly: Antitrypanosomal activity against Trypanosoma cruzi CL Brener in Vero cells assessed as endocytic index at 2.5 uM. The assay is classed as functional.
For assay [7], the system named is Trypanosoma cruzi. The assay is described as follows: Inhibition of Trypanosoma cruzi Y mitochondrial dehydrogenase activity by MTT assay relative to control.
For assay [8], the system named is Trypanosoma cruzi. Briefly: Antitrypanosomal activity against Trypanosoma cruzi CL Brener assessed as lysis of trypomastigotes at 25 uM after 19 hrs relative to control. The assay is classed as functional.
Assay [9] concerns Trypanosoma cruzi. Briefly: Antitrypanosomal activity against Trypanosoma cruzi CL Brener assessed as lysis of trypomastigotes at 50 uM after 19 hrs relative to control. The assay is classed as functional.
For assay [10], the system named is Trypanosoma cruzi. Briefly: Antitrypanosomal activity against Trypanosoma cruzi CL Brener assessed as lysis of trypomastigotes at 10 uM after 2 hrs relative to control. In kind it is functional.
Assay [11] has as its system Trypanosoma cruzi. Briefly: Antitrypanosomal activity against Trypanosoma cruzi CL Brener clone assessed as lysis of trypomastigotes at 10 uM after 3 hrs relative to control. The assay is classed as functional.
In assay [12] the test system is Trypanosoma cruzi. Briefly: Antitrypanosomal activity against Trypanosoma cruzi CL Brener clone assessed as lysis of trypomastigotes at 10 uM after 26 hrs relative to control. In kind it is functional.
The test system of assay [13] is Trypanosoma cruzi. The assay is described as follows: Antitrypanosomal activity against Trypanosoma cruzi CL Brener in Vero cells assessed as infection. In kind it is functional.
Assay [14] has as its system Trypanosoma cruzi. The assay is described as follows: Antitrypanosomal activity against Trypanosoma cruzi CL Brener in Vero cells assessed as number of amastigote infected. In kind it is functional.
Assay [15] concerns Trypanosoma cruzi. Briefly: Antitrypanosomal activity against Trypanosoma cruzi Tulahuen 2 assessed as inhibition of growth of epimastigotes at 25 uM after 5 days by MTT assay relative to control. The assay is classed as functional. The note with it: Tulahuen 2, 120 h, read-out: GI.
The subject of assay [16] is Trypanosoma cruzi. Briefly: Antitrypanosomal activity against Trypanosoma cruzi CL Brener assessed as lysis of trypomastigotes at 25 uM after 2 hrs relative to control. In kind it is functional.
The subject of assay [17] is Trypanosoma cruzi. Briefly: Antitrypanosomal activity against Trypanosoma cruzi CL Brener assessed as lysis of trypomastigotes at 50 uM after 2 hrs relative to control. The assay is classed as functional.
Assay [18] deals with Leishmania pifanoi. The assay is described as follows: Antileishmanial activity against Leishmania pifanoi MHOM/VE/57/LV135 at 5.0 uM after 5 days assessed as parasite viability by MTT assay. In kind it is functional. Particulars: 120 h, read-out: GI.

The source made the active and inactive calls. The rule behind the calls is not given here. Where only a bound is given, the exact number is not on record here.

Consider `CCSCCS(=O)(=O)c1no[n+]([O-])c1-c1ccccc1`, for which the inhibition (as a rule, the drop in the measured response relative to a control, in per cent) in assay [1] was < 1%. In addition, the IC50 is 5 µM in the assay on Trypanosoma cruzi [2]; 37.1 µM in the assay with Trypanosoma cruzi [3]; 6 µM in the assay with Trypanosoma cruzi [4]; > 50 µM with Leishmania braziliensis; > 50 µM with Leishmania pifanoi [5].

Regarding `NC(=O)CS(=O)(=O)c1c(-c2ccccc2)no[n+]1[O-]`, the Activity in the assay on Trypanosoma cruzi [6] came to 10.1; in the assay on Trypanosoma cruzi [8], 100%; in the assay on Trypanosoma cruzi [9] it was 100%; in the assay on Trypanosoma cruzi [10], 0%; with Trypanosoma cruzi [11], 5%; in the assay on Trypanosoma cruzi [12], 100%. Moreover, the figures for the Activity with Trypanosoma cruzi [13] and with Trypanosoma cruzi [14] were 6.3% and 1.6, respectively. The result in the assay with Trypanosoma cruzi [7] was Active. Besides, the IC50 with Trypanosoma cruzi [2] is 10 µM; with Trypanosoma cruzi [3], 3.7 µM; in the assay on Trypanosoma cruzi [4] it was 6 µM; with Leishmania braziliensis, 14.3 µM; with Leishmania pifanoi [5], > 50 µM.

`CCOCCS(=O)(=O)c1nonc1-c1ccccc1`: the IC50 is 7.5 µM with Trypanosoma cruzi [2]; > 50 µM in the assay on Trypanosoma cruzi [3]; > 50 µM with Trypanosoma cruzi [4]; > 50 µM in the assay with Leishmania braziliensis; > 50 µM in the assay on Leishmania pifanoi [5].

In the case of `O=S(=O)(c1ccccc1)c1no[n+]([O-])c1-c1ccccc1`, in [1], the inhibition was < 1%. Besides, the IC50 is 7.5 µM in the assay on Trypanosoma cruzi [2]; 9.1 µM with Trypanosoma cruzi [3]; > 50 µM with Trypanosoma cruzi [4]; 20.2 µM with Leishmania braziliensis; 20.5 µM with Leishmania pifanoi [5].

For `CCOCCS(=O)(=O)c1no[n+]([O-])c1-c1ccccc1`, the inhibition in [1] was < 1%. In addition, the IC50 was 17 µM in the assay on Trypanosoma cruzi [2]; > 50 µM in the assay with Trypanosoma cruzi [3]; > 50 µM in the assay with Trypanosoma cruzi [4]; > 50 µM in the assay with Leishmania braziliensis; > 50 µM in the assay on Leishmania pifanoi [5].

Take `COc1ccccc1NCCS(=O)(=O)c1no[n+]([O-])c1-c1ccccc1`: in assay [1], the inhibition was < 1%. The IC50 in the assay with Trypanosoma cruzi [2] stood at 8 µM; in the assay on Trypanosoma cruzi [3] it was 7.2 µM; in the assay on Trypanosoma cruzi [4], 26.2 µM; in the assay on Leishmania braziliensis, 9.9 µM; in the assay with Leishmania pifanoi [5] it was 33.8 µM.

As for `CCSCCS(=O)(=O)c1nonc1-c1ccccc1`, the inhibition of growth at 25 µM in the assay on Trypanosoma cruzi [15] is 25%. Moreover, the IC50 in the assay on Trypanosoma cruzi [3] was > 50 µM; with Trypanosoma cruzi [4] it was 28.7 µM; in the assay on Leishmania braziliensis, > 50 µM; in the assay with Leishmania pifanoi [5] it was > 50 µM.

For `C=CS(=O)(=O)c1c(-c2ccccc2)no[n+]1[O-]`, in the assay on Trypanosoma cruzi [7], the outcome was Active. Also, the IC50 in the assay on Trypanosoma cruzi [2] worked out at 6.5 µM; with Trypanosoma cruzi [3], 2.6 µM; with Trypanosoma cruzi [4], 6.8 µM; in the assay with Leishmania braziliensis, 10 µM; in the assay with Leishmania pifanoi [5], 26.7 µM. The Activity was 33% with Trypanosoma cruzi [16], 100% in the assay with Trypanosoma cruzi [8], 62% in the assay on Trypanosoma cruzi [17] and 100% in the assay with Trypanosoma cruzi [9].

As to `O=S(=O)(c1ccccc1)c1c(-c2ccccc2)no[n+]1[O-]`, the inhibition in assay [1] amounted to 10.3%. The IC50 stood at 5 µM in the assay on Trypanosoma cruzi [2]; 4.2 µM with Trypanosoma cruzi [3]; 4.3 µM in the assay on Trypanosoma cruzi [4]; 1.6 µM with Leishmania braziliensis; 3.8 µM with Leishmania pifanoi [5].

For the compound `O=S(=O)(c1ccccc1)c1nonc1-c1ccccc1`, the IC50 was 10 µM in the assay with Trypanosoma cruzi [2]; > 50 µM with Trypanosoma cruzi [3]; > 50 µM in the assay on Trypanosoma cruzi [4]; > 50 µM in the assay on Leishmania braziliensis; > 50 µM with Leishmania pifanoi [5].

For the compound `NC(=O)CS(=O)(=O)c1no[n+]([O-])c1-c1ccccc1`, the IC50 in the assay on Trypanosoma cruzi [2] is 25 µM; with Trypanosoma cruzi [3], > 50 µM; with Trypanosoma cruzi [4], 48 µM; in the assay with Leishmania braziliensis, > 50 µM; with Leishmania pifanoi [5] it was > 50 µM.

Turning to `NC(=O)CSc1no[n+]([O-])c1-c1ccccc1`, the inhibition of growth at 25 µM in the assay with Trypanosoma cruzi [15] was found to be 12%. In addition, the IC50 with Trypanosoma cruzi [3], with Trypanosoma cruzi [4], with Leishmania braziliensis and in the assay on Leishmania pifanoi [5] was > 50 µM each time.

`CCSCCS(=O)(=O)c1c(-c2ccccc2)no[n+]1[O-]` showed an inhibition in assay [1] of 10%. Besides, the IC50 was 7.5 µM in the assay on Trypanosoma cruzi [2]; 0.9 µM in the assay on Trypanosoma cruzi [3]; 3.9 µM in the assay with Trypanosoma cruzi [4]; 4 µM with Leishmania braziliensis; 4.6 µM in the assay on Leishmania pifanoi [5].

`NC(=O)CSc1nonc1-c1ccccc1`: in the assay with Trypanosoma cruzi [15], the inhibition of growth at 25 µM was found to be 17%. Also, the IC50 in the assay on Trypanosoma cruzi [3], in the assay on Trypanosoma cruzi [4], in the assay on Leishmania braziliensis and in the assay with Leishmania pifanoi [5] was > 50 µM in each case.

As to `NC(=O)CS(=O)(=O)c1nonc1-c1ccccc1`, the inhibition of growth at 25 µM in the assay with Trypanosoma cruzi [15] was determined as 27%. The IC50 in the assay on Trypanosoma cruzi [3], in the assay with Trypanosoma cruzi [4], in the assay on Leishmania braziliensis and with Leishmania pifanoi [5] was > 50 µM throughout.

Regarding `COc1ccccc1NCCS(=O)(=O)c1nonc1-c1ccccc1`, the IC50 in the assay on Trypanosoma cruzi [2] was 10 µM; with Trypanosoma cruzi [3], > 50 µM; in the assay on Trypanosoma cruzi [4], 50 µM; in the assay with Leishmania braziliensis, 11.6 µM; in the assay with Leishmania pifanoi [5] it was 15.8 µM.

As to `C=CS(=O)(=O)c1no[n+]([O-])c1-c1ccccc1`, the IC50 in the assay on Trypanosoma cruzi [2] was 5.5 µM; with Trypanosoma cruzi [3], 8.2 µM; in the assay on Trypanosoma cruzi [4], 11.1 µM; in the assay with Leishmania braziliensis, 39.1 µM; in the assay with Leishmania pifanoi [5] it was > 50 µM.

As for `CCOCCS(=O)(=O)c1c(-c2ccccc2)no[n+]1[O-]`, in assay [1], the inhibition came out at 10%. Also, the outcome in the assay on Trypanosoma cruzi [7] was Active. The IC50 with Trypanosoma cruzi [2] stood at 10 µM; in the assay with Trypanosoma cruzi [3] it was 1.5 µM; in the assay with Trypanosoma cruzi [4], 3.4 µM; with Leishmania braziliensis, 4.1 µM; in the assay with Leishmania pifanoi [5], 4.2 µM. Moreover, the values for the Activity in the assay with Trypanosoma cruzi [8], in the assay with Trypanosoma cruzi [17] and in the assay with Trypanosoma cruzi [9] were 100%, 68% and 100%, respectively.

Turning to `COc1ccccc1NCCS(=O)(=O)c1c(-c2ccccc2)no[n+]1[O-]`, the inhibition in assay [1] came out at 20.8%. The IC50 in the assay on Trypanosoma cruzi [2] was 7.5 µM; in the assay on Trypanosoma cruzi [3], 5 µM; in the assay with Trypanosoma cruzi [4], 9.2 µM; in the assay with Leishmania braziliensis, 13.7 µM; in the assay with Leishmania pifanoi [5], 6.5 µM.

With `CCCCCCCCCCCCCCCCOP(=O)([O-])OCC[N+](C)(C)C` [MILTEFOSINE], the IC50 in the assay with Leishmania braziliensis was determined as 9 µM. For the same compound, the inhibition of growth at 5 µM with Leishmania pifanoi [18] is 85.5%.

`C=CS(=O)(=O)c1nonc1-c1ccccc1`: the IC50 worked out at 6.5 µM in the assay with Trypanosoma cruzi [2]; 22.2 µM in the assay with Trypanosoma cruzi [3]; 23.5 µM in the assay with Trypanosoma cruzi [4]; 8 µM in the assay on Leishmania braziliensis; 20.4 µM in the assay with Leishmania pifanoi [5].
